From US20240327364A1, “THERAPEUTIC TARGETING OF GPR68 TO INDUCE FERROPTOSIS” (University Of Maryland, Baltimore, priority 2023, published 2024)

How the values were obtained:
[1] = test system: U87 glioblastoma cells; assay: Acid-induced calcium flux in U87 cells; assay type: cell-based, human; details: medium shifted from pH 7.8 to 6.4
Excerpt: GPR68 is known to signal through Gq which results in a calcium flux out of the Endoplasmic reticulum. U87 glioblastoma cells were stained, using a calcium-sensitive vital dye Fluo-8, and stimulated with acidification of the media to pH6.4. The cells respond to the acidification with a burst of calcium release, this is inhibited by OGM2.
To determine if GBM cells respond to their own acidic extracellular milieu as a form of autocrine signaling, calcium release in response to acidification was measured. GPR68 is known to couple to the Gq subunit, which acts to release calcium from the ER in a PLC dependent pathway. The medium was shifted from pH 7.8 to 6.4, which triggered a rapid and robust calcium flux, as measured by the fluorescence intensity of calcium-sensitive dye Cal520-AM. This calcium flux was blocked by OGM2 and PLC inhibitor U73122. FIG. 50A, FIG. 50B, FIG. 50C and FIG. 50D.

[2] = test system: MeWo; assay: Scratch assay; assay type: cell-based, human; details: 20 hours, OGM2 5 uM
Description: (§1) Since there are numerous parallels are found between neural crest cells and cancer during migration, we examined whether OGM could inhibit the migration of cells in human melanoma cell lines (Oppitz et al., 2007; Schriek et al., 2005, Sinnberg et al., 2018). […] A2058. MeWo and WM115 cells were grown to confluence and a stripe of cells were denuded with a p200 pipette tip “scratch” and rinsed with PBS. Cells were treated with OGM or DMSO and incubated in low serum media. Imaging was done at 30 minutes after “scratch” and then 20 hours afterwards. Areas were then measured and normalized to the initial area.

[3] = test system: WM115; assay: Scratch assay; assay type: cell-based, human; details: 20 hours, OGM2 5 uM
Description: as §1

[4] = test system: A2058; assay: Scratch assay; assay type: cell-based, human; details: 20 hours, OGM2 5 uM
[5] = test system: U87 spheroids; assay: GBM spheroid assay; assay type: cell-based, human
Description: One thousand cells per well were plated in an ultra-low attachment, round-bottomed, 96-well plate, and spheroids were allowed to form for 3 days. Wells were then exposed to concentrations of vehicle, OGM2 or TMZ or a combination for 3 days. Spheroids were imaged in brightfield at 10× using z-stacks that were collapsed into z-projections in the Gen5 software using the LionheartFx (BioTek™). Automated measurements of the spheroid area were obtained using Gen5 software.
Tumor spheroid cultures are a more physiological model of tumor growth than typical 2D cell culture. Temozolomide sensitive U87 (FIG. 20A) and Temozolomide insensitive U138 (FIG. 20B) glioblastoma cell lines were plated in low attachment round bottom 96-well plates and allowed to form tumor spheroids for 3 days (T0). At T0, spheroids were imaged using Lionheart™ (HCS) High-Content Imaging Systems (Biotek™) and then were exposed to increasing doses of either Temozolomide or OGM2. After 5 days of treatment the spheroids were imaged again (T5). The size (area) of the spheroids after 5 days of treatment was quantified, and the average size of the spheroids at TO is depicted in red.
A GPR68-positive allosteric modulator, Ogerin, was tested. U87glioblastoma cells were plated in low attachment round bottom 96-well plates and allowed to form tumor spheroids for 3 days (TO). These spheroids were treated with Vehicle (DMSO), 10 μM/20 μM Ogerin or 10 μM/20 μM Ogremorphin-2 (OGM2). The spheroids were placed in the Lionheart™ HCS equipped with environmental control (5% CO2 at 37° C.) and imaged every 12 hours.
Spheroids were formed over 3 days using low attachment 96-well round bottom plates and then treated with DMSO or OGM2 in either pH 8 buffered media or pH 6.2 buffered media and grown for 3 days. The size (area) of spheroids was measured in relative area units. […] This increase in growth was abrogated by OGM2.

[6] = test system: endothelial cell (EC); assay: Acidification-induced endothelial cell dysfunction; assay type: cell-based; details: OGM2 3 uM; Ogerin 2 uM
Description: FIG. 34A through FIG. 34C: GPR68 plays a central role in acidification-induced endothelial cell (EC) dysfunction in vitro, and OGM2 abrogates EC dysfunction. […] These effects were abolished by OGM2 (OGM) at 3 uM and augmented by GPR68 positive allosteric modulator Ogerin (Og) at 2 uM. *P<0.05; Mann-Whitney test, n=5. FIG. 34C: Medium acidification reduced transendothelial resistance (TER), indicative of disruption of EC barrier function.

[7] = test system: HEK293; assay type: cell-based; details: human
Excerpt: FIG. 59A through FIG. 59D: OGM2 causes specific cell death in glioblastoma cells.
Thus, in contrast to erastin, OGM2 induces ferroptosis selectively in cancer cells.

With `COc1ccc2c(c1)CC[C@@H]1[C@@H]2CC[C@]2(C)[C@@H](NCCCCCCN3C(=O)C=CC3=O)CC[C@@H]12` [Compound U73122] the acid-induced calcium flux [1] was “blocked”.

For `CCN(c1nc(N)c(C(=O)NC(=N)N)nc1Cl)C(C)C` [EIPA, reference compound], the migration [2] was “not”, the migration [3] was “inhibited migration” and the migration [4] was “inhibited migration”.

With `CCc1nn2c(C)cc(C)nc2c1Cc1ccc(-c2nnc(C3CCNCC3)o2)cc1` [NE52QQ, reference compound] the acid-induced calcium flux [1] was “not significant”.

For `Nc1nc(NCc2ccccc2)nc(-c2ccccc2CO)n1` [Ogerin, reference compound], the spheroid growth rate [5] was “promoted U87 spheroids growth rate” and the “acidic media (pH 6.5)-induced TNFα, VCAM1 and ICAM1 expression” value [6] was “augmented”.

For `CCOc1ccccc1-n1c(C(C)N2CCN(C(=O)COc3ccc(Cl)cc3)CC2)nc2ccccc2c1=O` (centres unmarked) [erastin, reference compound], the “HEK293 cell viability / survival” value [7] was “dramatically reduced HEK293 cell survival”.
